Test results reported in patent US20140348861A1, “SYNTHETIC PEPTIDES AND RANDOM COPOLYMERS FOR THE TREATMENT OF AUTOIMMUNE DISORDERS” (NATIONAL INSTITUTE OF IMMUNOLOGY, priority 2011, published 2014).
Non-standard residues stand in square brackets, D forms with d. No end group written: not given here. β3hA = C[C@H](N)CC(=O)O

System: SJL/J mice exhibiting MBP (85-109) induced relapsing remitting form of EAE
Experiment: Therapeutic activity in MBP (85-109) induced relapsing remitting EAE, treatment from day 11
Type: in vivo
Conditions: SJL/J mice, RR EAE; for Therapeutic activity in comparison to GA (Therapeutic activity (Analogs) − Therapeutic activity GA) / Therapeutic activity in comparison to J5 (Therapeutic activity (Analogs) − Therapeutic activity (J5)): 0.1 mg daily for two weeks; for Therapeutic activity = % reduction in cumulative clinical disability score: synthetic peptides, 0.1 mg daily for two weeks from day 11 post-immunization
Method: SJL/J and C57BL6/J mice procured from Jackson's laboratory (Bar Harbor, Me.) were maintained under standard housing conditions in the central animal facility at NII as per institutional ethical committee guidelines. 8-10 week old female SJL/J mice were used throughout the study.
To induce RR EAE or chronic progressive EAE, SJL/J or C57BL6/J mice were immunized subcutaneously with 0.2 mg of MBP (85-109) or 0.1 mg MOG (35-55) emulsified in CFA and 200 ng of pertussis toxin was injected intraperitoneally on day 0 and day 2 so as to permeablize the blood brain barrier. All the animals in various experimental groups were scored daily for clinical disability on a scale of 0-6 where 0=no neurological symptoms, 1=limp tail, 2=weakness of hind limbs or ataxia, 3=incomplete paralysis of hind limbs, 4=complete paralysis of hind limbs, 5=complete paralysis of all four limbs, 6=dead. Diseased animals were provided easy access to food and water.
GA, J91, J92, S101, S102, S103 for two weeks and scored for clinical disability.

Substance | Therapeutic activity in comparison to GA (Therapeutic activity (Analogs) − Therapeutic activity GA) [%] | Therapeutic activity in comparison to J5 (Therapeutic activity (Analogs) − Therapeutic activity (J5)) [%] | Therapeutic activity = % reduction in cumulative clinical disability score [%]
KVEAYKAAAβAβ [Analog S56] | −0.4278 | −4.385 | 30.91
EKβPKβVβEβAβYβKβAβAβAβAβPAβ [Analog S52] | −1.604 | −5.5615 | 29.73
KVEAYKAAAAβ^3 (KVEAYKAAA[β3hA]) [Analog S17] | −2.032 | −5.989 | 29.3
Kβ^3Vβ^3EAYβ^3Kβ^3 [Analog S34] | 25.03 | 21.07 | 56.36
Vβ^3Eβ^3Aβ^3Yβ^3Kβ^3 [Analog S39] | 9.519 | 5.561 | 40.86
EKPKVEAYKAAAAPAβ^3 [Analog S1] | 2.995 | −0.9626 | 34.33
VβEAYβKβ [Analog S78] | −11.9037 | −15.861 | 19.43
EKPKVEAβ^3Yβ^3Kβ^3Aβ^3Aβ^3Aβ^3Aβ^3Pβ^3Aβ^3 [Analog S9] | 23.74 | 19.79 | 55.08
KVEAYKAAβAβAβ [Analog S57] | 8.021 | 4.064 | 39.36
EKPKVβEβAβYβKβAβAβAβAβPAβ [Analog S50] | −1.925 | −5.882 | 29.41
VEAβYβKβ [Analog S75] | −5.5615 | −9.519 | 25.7754
KVEAYK (Peptide analog) [Analog J5b, reference compound] | −10.9091 | −14.8663 | 20.43
VβEβAβYβKβ [Analog S77] | −18.8235 | −22.7808 | 12.51
VEβAβYβKβ [Analog S76] | −7.914 | −11.8717 | 23.42
KVEAYKAAAA (Peptide analog) [Analog J5a, reference compound] | −2.995 | −6.952 | 28.34
EKPKβVβEβAβYβKβAβAβAβAβPAβ [Analog S51] | −4.92 | −8.877 | 26.42
